The numbers were not newly measured in patent US20050147632A1, “Virally infected plants as a source of insect reppellants/attractents” (priority 2002, published 2005), which cites them from elsewhere.

This series concerns neighboring plants. The note with it: Shulaev et al., Nature 385: 718-721, 1997.

Take `COC(=O)c1ccccc1O` [methyl salicylate]: the “induction of plant pathogen resistance” value is “capable of inducing plant pathogen resistance in neighboring plants”.
